In general, Kd refers to the free concentration of one partner at which half of the binding sites on the other are occupied at equilibrium, for simple one-to-one binding. Higher therefore signals lower affinity.

The target in the experiment is Proteasomal ubiquitin receptor ADRM1 (Homo sapiens, UniProt Q16186). Nature of the experiment: Isothermal Titration Calorimetry Experiments. As to the method:
ITC experiments were performed at 25° C. on a MicroCal iTC200 system (Malvern, PA, USA). hRpn13 Pru, XL5, XL5 derivative, or RA190 were prepared in buffer C. One aliquot of 0.5 μL followed by 17 or 18 aliquots of 2.1 μL of 200 μM hRpn13 Pru was injected at 750 r.p.m. into a calorimeter cell (volume […]) that contained 20 μM XL5, XL5 derivative, or RA190. Blank experiments were performed by replacing XL5, XL5 derivative, or RA190 with buffer in the cell and the resulting data subtracted from the experimental data during analyses. The integrated interaction heat values were normalized as a function of protein concentration and the data were fit with MicroCal Origin 7.0-based software implementing the One Set of Sites model to yield binding affinity Ka (1/Kd), stoichiometry, and other thermodynamic parameters.
For orientation: In ITC the heat of successive injections is recorded.

Sequence of Proteasomal ubiquitin receptor ADRM1 (Q16186 whole entry): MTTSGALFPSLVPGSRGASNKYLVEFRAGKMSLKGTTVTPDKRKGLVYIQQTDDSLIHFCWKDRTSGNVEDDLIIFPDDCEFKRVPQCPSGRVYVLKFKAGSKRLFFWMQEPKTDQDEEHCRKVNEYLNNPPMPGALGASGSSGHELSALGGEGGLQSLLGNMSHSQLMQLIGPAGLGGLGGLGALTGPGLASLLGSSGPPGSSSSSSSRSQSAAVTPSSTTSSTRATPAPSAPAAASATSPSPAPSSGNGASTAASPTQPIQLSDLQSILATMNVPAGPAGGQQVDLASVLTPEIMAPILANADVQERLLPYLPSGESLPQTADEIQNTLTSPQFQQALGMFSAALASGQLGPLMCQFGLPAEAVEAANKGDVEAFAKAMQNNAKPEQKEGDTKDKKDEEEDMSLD

Take `N#C/C(=C\c1cccc(NC(=O)c2ccccc2Cl)c1)C(=O)Nc1ccccc1C(=O)O` [US20240317732, Compound XL23]: the Kd was 3.88 µM.
Consider `N#CC(=Cc1cccc(NC(=O)c2ccc(NCC(=O)O)cc2)c1)C(=O)Nc1ccccc1C(=O)O` [US20240317732, Compound XL25], for which the affinity, expressed as Kd, was 4.12 µM.
The same measure for `Cc1ccc(C(=O)Nc2cccc(C=C(C#N)C(=O)Nc3ccccc3C(=O)O)c2)nc1O` [US20240317732, Compound XL27]: 3.94 µM; for `CNc1ccc(NC(=O)/C(C#N)=C/c2cccc(NC(=O)c3ccc(C)cc3)c2)c(C(=O)O)c1` [US20240317732, Compound XL29]: 7.81 µM; for `Cc1ccc(C(=O)Nc2cccc(C=C(C#N)C(=O)Nc3cccc(C(F)(F)F)c3C(=O)O)c2)cc1` [US20240317732, Compound XL30]: 12.4 µM.
`COc1ccc(NC(=O)/C(C#N)=C/c2cccc(NC(=O)c3ccc(C)cc3)c2)c(C(=O)O)c1` [US20240317732, Compound XL28] had a dissociation constant (Kd) of 3.82 µM.

The values are drawn from BindingDB's records for patent US20240317732 (Department of Health And Human Service, 2024).
